The source of these data is ChEMBL document CHEMBL3627643, “Synthesis of stereochemically diverse cyclic analogs of tubulysins” (Bioorg Med Chem, 2015).

Each structure is given as a SMILES string.

As a reminder, the inhibition is the percentage by which the read-out fell short of the control. Low values mean a weak effect, high ones a strong effect.

In this test the target is Tubulin (Sus scrofa) (UniProt P02554+P02550). In words: Inhibition of pig tubulin polymerization at 5 uM incubated for 20 mins at 37 degC by fluorescence based tubulin polymerization inhibition assay. Type of test: protein assay.
Sequence of Tubulin (Sus scrofa) (P02550 whole entry, looked up): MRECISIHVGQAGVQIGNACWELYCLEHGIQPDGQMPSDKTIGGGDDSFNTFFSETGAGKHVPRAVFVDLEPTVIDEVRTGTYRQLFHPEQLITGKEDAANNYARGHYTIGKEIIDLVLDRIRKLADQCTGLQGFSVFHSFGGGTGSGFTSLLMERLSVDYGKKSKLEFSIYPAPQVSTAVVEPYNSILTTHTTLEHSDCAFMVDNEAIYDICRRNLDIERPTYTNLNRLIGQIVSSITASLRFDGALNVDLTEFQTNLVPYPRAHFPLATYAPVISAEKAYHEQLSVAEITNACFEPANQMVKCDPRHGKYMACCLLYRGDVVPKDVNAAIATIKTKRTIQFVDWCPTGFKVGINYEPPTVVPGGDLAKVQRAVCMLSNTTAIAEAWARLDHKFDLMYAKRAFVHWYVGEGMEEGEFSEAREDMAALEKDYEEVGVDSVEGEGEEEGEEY
Sequence of Tubulin (Sus scrofa) (P02554 whole entry, looked up): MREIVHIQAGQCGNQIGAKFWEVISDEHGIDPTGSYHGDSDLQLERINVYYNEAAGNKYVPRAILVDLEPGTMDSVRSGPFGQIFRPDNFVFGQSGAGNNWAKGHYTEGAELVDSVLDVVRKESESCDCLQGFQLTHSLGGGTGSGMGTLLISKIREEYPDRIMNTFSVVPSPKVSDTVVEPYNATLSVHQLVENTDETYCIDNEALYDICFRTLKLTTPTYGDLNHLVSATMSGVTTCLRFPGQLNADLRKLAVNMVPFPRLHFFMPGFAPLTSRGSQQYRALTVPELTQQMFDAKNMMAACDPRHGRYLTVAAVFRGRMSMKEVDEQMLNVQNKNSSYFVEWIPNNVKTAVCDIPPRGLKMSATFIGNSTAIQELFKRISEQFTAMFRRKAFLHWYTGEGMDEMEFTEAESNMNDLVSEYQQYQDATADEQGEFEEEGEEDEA
As to `CC[C@H](C)[C@H](NC(=O)[C@H]1CCCCN1C)C(=O)N(C)[C@H]1CCO[C@@H](c2nc(C(=O)NCCOC)cs2)C1`, the inhibition was found to be 10.6%.
As for `CC[C@H](C)[C@H](NC(=O)[C@H]1CCCCN1C)C(=O)N[C@H]1CCO[C@H](c2nc(C(=O)NCCc3ccccc3)cs2)C1`, the inhibition was determined as 5.61%.
The result for `CC[C@H](C)[C@H](NC(=O)[C@H]1CCCCN1C)C(=O)N[C@@H]1CCO[C@H](c2nc(C(=O)NCCc3ccccc3)cs2)C1` reads 3.76%; that for `CC[C@H](C)[C@@H](C(=O)N[C@H]1CCO[C@@H](c2nc(C(=O)NC(C)C)cs2)C1)N(C)C`, 16.9%; that for `CC[C@H](C)[C@H](NC(=O)[C@H]1CCCCN1C)C(=O)N[C@@H]1CCO[C@@H](c2nc(C(=O)NCCc3ccccc3)cs2)C1`, 2.23%.
Molecule `CC[C@]1(O)C[C@@H]2CN(CCc3c([nH]c4ccccc34)[C@@](C(=O)OC)(c3cc4c(cc3OC)N(C)[C@H]3[C@@](O)(C(=O)OC)[C@H](OC(C)=O)[C@]5(CC)C=CCN6CC[C@]43[C@@H]65)C2)C1` showed an inhibition of 73.9%.
With `CC[C@H](C)[C@H](N)C(=O)N[C@H]1CCO[C@@H](c2nc(C(=O)NC(C)C)cs2)C1`, the inhibition is 10.6%.
Molecule `CC[C@H](C)[C@H](NC(=O)[C@H]1CCCCN1C)C(=O)N[C@H]1CCO[C@H](c2nc(C(=O)NC(C)C)cs2)C1` gave an inhibition of 8.73%.
The result for `CC[C@H](C)[C@H](NC(=O)[C@H]1CCCCN1C)C(=O)N[C@H]1CCO[C@@H](c2nc(C(=O)NCCc3ccccc3)cs2)C1` reads 1.62%; that for `CC[C@@H](C)[C@H](NC(=O)[C@H]1CCCCN1C)C(=O)N(COC(=O)CC(C)C)[C@H](C[C@@H](OC(C)=O)c1nc(C(=O)N[C@@H](Cc2ccc(O)cc2)C[C@H](C)C(=O)O)cs1)C(C)C`, 72.6%; that for `CC[C@H](C)[C@H](NC(=O)CN(C)C)C(=O)N[C@H]1CCO[C@@H](c2nc(C(=O)NCCc3ccccc3)cs2)C1`, 19.9%.
The result for `CC[C@H](C)[C@H](NC(=O)[C@H]1CCCCN1C)C(=O)N(C)[C@H]1CCO[C@@H](c2nc(C(=O)NC(C)C)cs2)C1` reads 15.5%; that for `CC[C@H](C)[C@H](NC(=O)[C@H]1CCCCN1C)C(=O)N[C@H]1CCO[C@@H](c2nc(C(=O)NC(C)C)cs2)C1`, 5.35%.
Take `CC[C@H](C)[C@H](NC(=O)[C@H]1CCCCN1C)C(=O)N(C)[C@H]1CCO[C@@H](c2nc(C(=O)NCCN3CCOCC3)cs2)C1`: the inhibition was determined as 7.46%.
The result for `CC[C@H](C)[C@H](NC(=O)[C@H]1CCCCN1C)C(=O)N(C)[C@H]1CCO[C@@H](c2nc(C(=O)NCCc3ccccc3)cs2)C1` reads 5.87%.
The result for `CC[C@H](C)[C@H](NC(=O)CN(C)C)C(=O)N[C@H]1CCO[C@@H](c2nc(C(=O)NC(C)C)cs2)C1` reads 12.9%; that for `CC[C@H](C)[C@H](NC(=O)[C@H]1CCCCN1C)C(=O)N(C)[C@H]1CCO[C@@H](c2nc(C(=O)NCc3ccccc3)cs2)C1`, 10.2%.
Consider `CC[C@H](C)[C@H](NC(=O)[C@H]1CCCCN1C)C(=O)N(C)[C@H]1CCO[C@@H](c2nc(C(=O)NCCc3ccccn3)cs2)C1`, for which the inhibition was 20.2%.
As for `CC[C@H](C)[C@H](N)C(=O)N[C@H]1CCO[C@@H](c2nc(C(=O)NCCc3ccccc3)cs2)C1`, the inhibition came out at 8.52%.
The molecule `CC[C@H](C)[C@@H](C(=O)N[C@H]1CCO[C@@H](c2nc(C(=O)NCCc3ccccc3)cs2)C1)N(C)C` gave an inhibition of 15.8%.
`CC[C@H](C)[C@H](NC(=O)[C@H]1CCCCN1C)C(=O)N[C@@H]1CCO[C@@H](c2nc(C(=O)NC(C)C)cs2)C1` registered an inhibition of 3.9%.
The result for `CC[C@H](C)[C@H](NC(=O)[C@H]1CCCCN1C)C(=O)N[C@@H]1CCO[C@H](c2nc(C(=O)NC(C)C)cs2)C1` reads 1.45%.
